Reference: PubChem BioAssay AID1918991 (Molecular Pharmacology Branch, DTP, NCI, 2023)

System: 186277-243-T-J2-PDC complex spheroid growth
Assay: Anticancer human tumor 186277-243-T-J2-PDC patient-derived colon adenocarcinoma cell line growth inhibition [AhR]
Settings: for IC50: curve of first compound; for viability, T/C: stronger effect = lower value
From the text: Multicellular complex tumor spheroid response to aryl hydrocarbon receptor antagonists in combination with a variety of drugs and investigational agents in selected tumor cell lines
The current study was undertaken to assess response to aryl hydrocarbon receptor antagonists in combination with standard-of-care drugs and investigational agents in solid tumor complex spheroid models. Complex spheroids include a stromal component modeled by human endothelial cells (HUVEC) and fibroblasts modeled by human mesenchymal stem cells (MSCs). The concentration ranges selected for each drug and investigational agent were based upon clinically achievable concentrations if the clinical Cmax of the agent was known.
Compounds. The drugs and investigational agents: BAY 2416964 (NSC825713), GNF351 (NSC835774), CH-223191 (NSC835775), CPI-455 (NSC825282), aza-TdCyd (NSC777586), decitabine (NSC127716), belinostat (NSC758774), entinostat (NSC756642), pevonedistat (NSC761192), tazemetostat (NSC777109), talazoparib (NSC765396), olaparib (NSC753686), selinexor (NSC780203), nedisertib (M3814, NSC802822), bortezomib (NSC756655), venetoclax (NSC766270), doxorubicin (NSC123127), elimusertib (BAY189344, NSC800525), ceralasertib (AZD6738, NSC777638), TAK-243 (NSC785004), alisertib (NSC759677), etoposide (NSC141540), topotecan (NSC609699), eribulin (NSC707389), gemcitabine (NSC613327), carboplatin (NSC241240), cisplatin (NSC119875), and SN-38 (NSC673596) were obtained from the National Cancer Institute (NCI) Developmental Therapeutics Program Chemical Repository (32). The FDA-approved anticancer drug set is available from the Developmental Therapeutics Program at https://dtp.cancer.gov/organization/dscb/obtaining/available plates.htm. […] The stock solutions were prepared in dimethyl sulfoxide (DMSO, Sigma-Aldrich, St. Louis, MO, cat. D2650), except for the platinum compounds which were prepared in saline (Quality Biological, Gaithersburg, MD, cat. 114-055-101), at 800-fold the tested concentration and stored at -70 degrees C prior to their use. All drugs and investigational agents were tested over a range starting from a high concentration at or near the clinical Cmax and decreasing in half-log increments. If the clinical Cmax for an agent had not been determined, the highest concentration tested was 10 microM (Table 1).
Cell Culture. All cells were maintained in an incubator at 37 degrees C and 5% CO2 with 95% humidity. The PDC lines were cultured according to standard operating procedures established by the NCI PDMR (https://pdmr.cancer.gov). Briefly, all PDCs were thawed and cultured in Matrigel-coated flasks prepared with a working solution of 1X Ham's F-12 nutrient mix, without supplementation (Invitrogen, Waltham, MA, cat. 11765054), 100 U/mL penicillin-streptomycin (Invitrogen, cat. 15140122), and 2.5% Matrigel (Corning Inc., Corning, NY, cat. 354248) for the first three passages. All PDCs were cultured in complete DMEM/F-12 media containing advanced DMEM/F-12 (Invitrogen, cat. 12634028), 4.9% defined fetal bovine serum, heat inactivated (HyClone Laboratories Inc., Logan, UT, cat. SH30070.03HI), 389 ng/mL hydrocortisone (Sigma-Aldrich, cat. H4001), 9.7 ng/mL human EGF recombinant protein (Invitrogen, cat. PHG0313), 23.4 microg/mL adenine (Sigma-Aldrich, cat. A2786), 97.3 U/mL penicillin-streptomycin (Invitrogen, cat. 15140122), 1.9 mM L-glutamine (Invitrogen, cat. 25030081), and 9.7 microM Y-27632 dihydrochloride (Tocris Bioscience, Bristol, United Kingdom, cat. 1254). The PDCs were cultured in complete DMEM/F12 media without 10 microM Y-27632 dihydrochloride for at least two passages prior to the screen. The established cell lines NCI-H1341 and […] were cultured in DMEM/F-12, HEPES (Invitrogen, cat. 11330032), 5% defined fetal bovine serum (HyClone Laboratories Inc., cat. SH30070.03), ITS premix universal culture supplement [insulin (5 microg/mL), transferrin (5 microg/mL), and selenious acid (5 ng/mL)] […]

[1] = second compound 0.1 µM, first compound 0.0316 µM
[2] = second compound 0.1 µM, first compound 0.1 µM
[3] = second compound 0.316 µM, first compound 0.0316 µM
[4] = second compound 0.316 µM, first compound 0.1 µM
[5] = second compound 1 µM, first compound 0.0316 µM
[6] = second compound 1 µM, first compound 0.1 µM
[7] = second compound 3.16 µM, first compound 0.0316 µM
[8] = second compound 3.16 µM, first compound 0.1 µM
[9] = second compound 10 µM, first compound 0.0316 µM
[10] = second compound 10 µM, first compound 0.1 µM
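Note: spheroids exposed to compounds for seven days before the viability read.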
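Throughout, for viability, T/C: luminescent signal used as a stand-in for viable cell amount; 100% = DMSO vehicle control wells.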

CC[C@@]1(O)C(=O)OCc2c1cc1n(c2=O)Cc2cc3c(CN(C)C)c(O)ccc3nc2-1 + CC(CO)NC(=O)c1cc(-c2ccc(Cl)cc2)nn(-c2cnn(C)c2)c1=O
IC50 (second compound 0.1 µM): 14.1 nM
IC50 (second compound 0.316 µM): 14.5 nM
IC50 (second compound 1 µM): 15 nM
IC50 (second compound 3.16 µM): 11.3 nM
IC50 (second compound 10 µM): 12.7 nM
viability, T/C (second compound 0.1 µM, first compound 0.000316 µM): 101%
viability, T/C (second compound 0.1 µM, first compound 0.001 µM): 101%
viability, T/C (second compound 0.1 µM, first compound 0.00316 µM): 89.5%
viability, T/C (second compound 0.1 µM, first compound 0.01 µM): 57.3%
viability, T/C [1]: 32.2%
viability, T/C [2]: 21.5%
viability, T/C (second compound 0.316 µM, first compound 0.000316 µM): 96.5%
viability, T/C (second compound 0.316 µM, first compound 0.001 µM): 102%
viability, T/C (second compound 0.316 µM, first compound 0.00316 µM): 93.5%
viability, T/C (second compound 0.316 µM, first compound 0.01 µM): 59.6%
viability, T/C [3]: 30.1%
viability, T/C [4]: 22.2%
viability, T/C (second compound 1 µM, first compound 0.000316 µM): 90.4%
viability, T/C (second compound 1 µM, first compound 0.001 µM): 102%
viability, T/C (second compound 1 µM, first compound 0.00316 µM): 91%
viability, T/C (second compound 1 µM, first compound 0.01 µM): 62.2%
viability, T/C [5]: 27.6%
viability, T/C [6]: 22%
viability, T/C (second compound 3.16 µM, first compound 0.000316 µM): 88.3%
viability, T/C (second compound 3.16 µM, first compound 0.001 µM): 102%
viability, T/C (second compound 3.16 µM, first compound 0.00316 µM): 77.1%
viability, T/C (second compound 3.16 µM, first compound 0.01 µM): 55.5%
viability, T/C [7]: 24.7%
viability, T/C [8]: 22.7%
viability, T/C (second compound 10 µM, first compound 0.000316 µM): 75%
viability, T/C (second compound 10 µM, first compound 0.001 µM): 75.4%
viability, T/C (second compound 10 µM, first compound 0.00316 µM): 78.3%
viability, T/C (second compound 10 µM, first compound 0.01 µM): 56.2%
viability, T/C [9]: 26.5%
viability, T/C [10]: 24.1%

Nc1ccn(C2OC(CO)C(O)C2(F)F)c(=O)n1 (stereo not given) + CC(CO)NC(=O)c1cc(-c2ccc(Cl)cc2)nn(-c2cnn(C)c2)c1=O
IC50 (second compound 0.1 µM): < 31.6 nM
IC50 (second compound 0.316 µM): < 31.6 nM
IC50 (second compound 1 µM): < 31.6 nM
IC50 (second compound 3.16 µM): < 31.6 nM
IC50 (second compound 10 µM): < 31.6 nM
viability, T/C [1]: 5.01%
viability, T/C [2]: 4.63%
viability, T/C (second compound 0.1 µM, first compound 0.316 µM): 4.51%
viability, T/C (second compound 0.1 µM, first compound 1 µM): 3.71%
viability, T/C (second compound 0.1 µM, first compound 3.16 µM): 4.16%
viability, T/C (second compound 0.1 µM, first compound 10 µM): 4.38%
viability, T/C [3]: 4.41%
viability, T/C [4]: 4.36%
viability, T/C (second compound 0.316 µM, first compound 0.316 µM): 4.44%
viability, T/C (second compound 0.316 µM, first compound 1 µM): 4.03%
viability, T/C (second compound 0.316 µM, first compound 3.16 µM): 4.3%
viability, T/C (second compound 0.316 µM, first compound 10 µM): 4.3%
viability, T/C [5]: 5.04%
viability, T/C [6]: 4.97%
viability, T/C (second compound 1 µM, first compound 0.316 µM): 4.99%
viability, T/C (second compound 1 µM, first compound 1 µM): 4.1%
viability, T/C (second compound 1 µM, first compound 3.16 µM): 5.44%
viability, T/C (second compound 1 µM, first compound 10 µM): 4.54%
viability, T/C [7]: 5.3%
viability, T/C [8]: 4.96%
viability, T/C (second compound 3.16 µM, first compound 0.316 µM): 5.78%
viability, T/C (second compound 3.16 µM, first compound 1 µM): 5.41%
viability, T/C (second compound 3.16 µM, first compound 3.16 µM): 5.04%
viability, T/C (second compound 3.16 µM, first compound 10 µM): 4.36%
viability, T/C [9]: 5.62%
viability, T/C [10]: 5.79%
viability, T/C (second compound 10 µM, first compound 0.316 µM): 5.42%
viability, T/C (second compound 10 µM, first compound 1 µM): 5.48%
viability, T/C (second compound 10 µM, first compound 3.16 µM): 5.6%
viability, T/C (second compound 10 µM, first compound 10 µM): 4.96%
